From US20100279329A1, “METHOD FOR THE STABILISATION OF PURIFIED P-GLYCOPROTEIN” (UNIVERSITY OF BRIGHTON, priority 2007, published 2010)
“Also recorded” adds a separate entry of the source.

Assays:
P-glycoprotein (P-gp) [1] = molecular target: T1, P-glycoprotein (P-gp) (Homo sapiens, UniProt P08183); test: ATPase activity, varying ATP concentration (Michaelis-Menten kinetics), colorimetric Pi release; type: biochemical; design: made in house; host or cells: Trichoplusia ni (High Five) insect cells, recombinant baculovirus; settings: for Nicardipine stimulated Vmax / Effect of the disaccharide on nicardipine stimulated ATPase activity (Vmax): 30 μM nicardipine; for Nicardipine stimulated Vmax / Basal Vmax: glycerol purified P-gp, mean (SEM), n=4; for Basal Vmax / Effect of the disaccharide on basal ATPase activity: no drug; for Effect of the disaccharide on nicardipine stimulated ATPase activity (Vmax) / Effect of the disaccharide on basal ATPase activity: 10-300 mM disaccharide added to glycerol purified P-gp, two way ANOVA
T1 sequence (P08183 whole entry): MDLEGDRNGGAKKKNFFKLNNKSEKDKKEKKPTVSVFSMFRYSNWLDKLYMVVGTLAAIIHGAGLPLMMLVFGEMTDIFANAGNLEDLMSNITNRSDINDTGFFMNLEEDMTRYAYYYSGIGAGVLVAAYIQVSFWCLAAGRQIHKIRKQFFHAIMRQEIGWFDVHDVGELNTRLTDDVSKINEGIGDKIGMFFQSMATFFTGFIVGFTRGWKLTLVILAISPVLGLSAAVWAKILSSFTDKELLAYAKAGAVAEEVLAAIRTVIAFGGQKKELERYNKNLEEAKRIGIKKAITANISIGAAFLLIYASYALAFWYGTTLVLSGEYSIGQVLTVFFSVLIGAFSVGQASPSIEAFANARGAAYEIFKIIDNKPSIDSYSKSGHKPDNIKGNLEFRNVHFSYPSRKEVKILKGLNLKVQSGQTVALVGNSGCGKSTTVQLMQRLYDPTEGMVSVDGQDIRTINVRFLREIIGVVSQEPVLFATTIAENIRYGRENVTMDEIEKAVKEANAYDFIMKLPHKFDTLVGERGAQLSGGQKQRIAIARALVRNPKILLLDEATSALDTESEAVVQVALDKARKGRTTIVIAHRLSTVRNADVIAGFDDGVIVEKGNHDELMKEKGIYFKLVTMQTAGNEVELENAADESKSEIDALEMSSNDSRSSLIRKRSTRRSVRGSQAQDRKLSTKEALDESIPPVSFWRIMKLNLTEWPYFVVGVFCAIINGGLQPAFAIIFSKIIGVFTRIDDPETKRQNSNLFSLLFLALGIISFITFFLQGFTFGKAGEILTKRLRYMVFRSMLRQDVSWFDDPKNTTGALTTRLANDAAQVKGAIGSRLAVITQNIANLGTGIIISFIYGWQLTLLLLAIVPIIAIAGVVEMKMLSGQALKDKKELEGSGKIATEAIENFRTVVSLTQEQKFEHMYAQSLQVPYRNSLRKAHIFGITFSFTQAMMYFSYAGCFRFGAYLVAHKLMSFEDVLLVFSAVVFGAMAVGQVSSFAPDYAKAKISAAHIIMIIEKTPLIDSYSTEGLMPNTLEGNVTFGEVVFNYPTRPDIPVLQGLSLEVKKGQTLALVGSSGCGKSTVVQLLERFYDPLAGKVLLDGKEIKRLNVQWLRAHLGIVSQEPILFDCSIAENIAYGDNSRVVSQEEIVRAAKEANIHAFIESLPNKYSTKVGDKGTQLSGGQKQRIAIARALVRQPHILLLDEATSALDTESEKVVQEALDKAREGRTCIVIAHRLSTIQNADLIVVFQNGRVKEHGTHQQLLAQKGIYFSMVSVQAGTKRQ
Procedure: A colorimetric assay (Chifflet et al., 1988) was used to determine ATP hydrolysis via release of inorganic phosphate. P-gp activity was expressed as μmol Pi/min/mg protein.
A 0-20 nmol standard curve was set up using KH2PO4 as a source of Pi. Background Pi was measured using wells containing no protein or drug only ATP and ATPase buffer (50 mM Tris pH 7.4, 150 mM NH4Cl, 5 mM MgSO4, 0.02% (w/v) NaN3).
The plate was incubated for 20 minutes at 37° C. and the reaction quenched by rapid addition of 40 μl 12% (w/v) SDS to all wells. 100 μl of a 1:1 mixture of 6% (w/v) ascorbate in 1M HCl:1% (w/v) ammonium molybdate (prepared after the reaction had been quenched due to its sensitivity to light) was added to all wells and the plate was incubated for 5 minutes at room temperature. Finally, 100 μl 2% (w/v) sodium citrate/sodium metaarsentie/2% (v/v) acetic acid was added and the plate incubated at 37° C. for 15 minutes. The plate was then allowed to cool and the absorbance measured at a wavelength of 750 nm in a plate reader (SpectraMax 250, Molecular Devices/Multiskan Ascent). The amount of Pi released was calculated from the Pi standard curve and the ATPase activity of P-gp calculated.
The amount of protein (mg) in 20 μl was calculated from the protein concentration determined by BSA standard curve (see 1.2.8) allowing ATPase activity to be determined as μmol/min/mg protein. The Michaelis-Menten equation (Equation 1) was fitted to a graph of ATPase activity using non-linear least squares fit (GraphPad Prism 4.0).
Both varying ATP and varying drug assays were performed.

P-glycoprotein (P-gp) [2] = molecular target: T1, P-glycoprotein (P-gp); test: ATPase activity of P-gp proteoliposomes after freeze drying, rehydration and storage; type: biochemical; design: made in house; host or cells: Trichoplusia ni (High Five) insect cells, recombinant baculovirus; settings: storage at 4° C. only
Procedure: All freeze drying was carried out using a CHRIST Alpha 2-4 (MartinChrist, Germany) with the condenser temperature set to −80° C. Initial experiments were performed with product in micro-centrifuge tubes. Later experiments were performed using 2 ml glass freeze drying vials and freeze drying injection stoppers in conjunction with a stoppering system. This permitted vials to be sealed under vacuum, thus avoiding moisture uptake from the atmosphere when the chamber pressure was raised to atmospheric. In all experiments the shelf was pre-cooled to −80° C. to avoid melting of products whilst the chamber was being evacuated to the required pressure.
In order for freeze drying to be considered successful P-gp must have at least retained ATPase activity on rehydration immediately after freeze drying. On completion of the freeze drying cycle the solid product cake was rehydrated with distilled water. The product vial was vortexed to ensure the dried product was completely dissolved and rehydrated. […]
P-gp proteoliposomes were freeze dried, sealed and stored at a range of temperatures (4° C., 20° C. and 37° C.) and ATPase activity was assessed at intervals up to 150 days. […]
Following rehydration of P-gp proteoliposomes the ATPase activity was measured as described earlier. Activity was assessed following storage at 4° C., 20° C. and 37° C. at intervals up to 30 days.

P-glycoprotein (P-gp) [3] = molecular target: T1, P-glycoprotein (P-gp); test: ATPase activity, varying drug concentration at constant ATP concentration (dose response); settings: 300 mM disaccharide vs none; glycerol purified P-gp; two way ANOVA
Excerpt: The assay was set up, conducted and read in conditions identical to those described above. […] The equation for the general dose response curve is given below (Equation 2).
Equation 2: The general dose response curve equation, where • V=rate of hydrolysis expressed as μmol/min/mg Pi, • Vmax=maximum rate of hydrolysis, • Vmin=minimum rate of hydrolysis, • [D]=concentration of drug, and • EC50=concentration of drug required to produce half maximum rate of hydrolysis.
The highest concentration was similar to that found in the reaction volume of an ATPase assay when a 20% (w/v) buffer was used (10 mM-300 mM). […] Both varying ATP and varying drug assays were performed.

[4] = molecular target: T2, plasma membrane H+-ATPase (Kluyveromyces lactis, UniProt P49380); settings: cited from earlier work
T2 sequence (P49380 1-899): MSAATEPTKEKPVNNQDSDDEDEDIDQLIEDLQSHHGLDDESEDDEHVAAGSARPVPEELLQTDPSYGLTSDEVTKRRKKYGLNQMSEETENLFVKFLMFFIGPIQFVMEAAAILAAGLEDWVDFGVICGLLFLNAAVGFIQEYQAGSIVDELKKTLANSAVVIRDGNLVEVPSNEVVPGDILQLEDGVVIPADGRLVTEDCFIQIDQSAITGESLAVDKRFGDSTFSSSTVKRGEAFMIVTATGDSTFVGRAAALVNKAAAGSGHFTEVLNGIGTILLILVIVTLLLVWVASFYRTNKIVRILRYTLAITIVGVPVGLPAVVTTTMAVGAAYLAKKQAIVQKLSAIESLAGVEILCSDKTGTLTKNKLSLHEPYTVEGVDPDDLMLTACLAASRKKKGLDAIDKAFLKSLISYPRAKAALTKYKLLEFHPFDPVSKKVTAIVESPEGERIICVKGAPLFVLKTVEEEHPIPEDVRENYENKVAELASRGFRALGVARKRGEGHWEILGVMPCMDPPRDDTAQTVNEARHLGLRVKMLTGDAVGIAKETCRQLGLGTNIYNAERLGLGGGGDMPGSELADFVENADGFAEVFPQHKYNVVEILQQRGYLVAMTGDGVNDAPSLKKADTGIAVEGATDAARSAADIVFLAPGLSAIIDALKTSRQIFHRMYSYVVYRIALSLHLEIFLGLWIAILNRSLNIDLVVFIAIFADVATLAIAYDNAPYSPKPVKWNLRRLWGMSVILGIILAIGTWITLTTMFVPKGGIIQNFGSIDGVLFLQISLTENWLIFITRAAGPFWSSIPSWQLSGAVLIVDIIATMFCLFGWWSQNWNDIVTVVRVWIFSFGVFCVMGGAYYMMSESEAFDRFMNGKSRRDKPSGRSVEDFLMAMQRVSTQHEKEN

In the case of `OC[C@H]1O[C@H](O[C@H]2[C@H](O)[C@@H](O)[C@@H](O)O[C@@H]2CO)[C@H](O)[C@@H](O)[C@@H]1O` [Maltose, α-D-glucopyranosyl (1-4) α-D-glucopyranose], the “Nicardipine stimulated Vmax” value (P-glycoprotein (P-gp) [1]; 10 mM maltose) was 1.7 (1.1) μmol/min/mg, the “Basal Vmax” value (P-glycoprotein (P-gp) [1]; 10 mM maltose) was 0.1 (0.4) μmol/min/mg and the “Nicardipine stimulated Vmax” value (P-glycoprotein (P-gp) [1]; 30 mM maltose) was 1.1 (0.6) μmol/min/mg. The “Basal Vmax” value (P-glycoprotein (P-gp) [1]; 30 mM maltose) was 0.1 (0.1) μmol/min/mg, the “Nicardipine stimulated Vmax” value (P-glycoprotein (P-gp) [1]; 100 mM maltose) was 1.0 (0.3) μmol/min/mg and the “Basal Vmax” value (P-glycoprotein (P-gp) [1]; 100 mM maltose) was 0.1 (0.6) μmol/min/mg. The “Nicardipine stimulated Vmax” value (P-glycoprotein (P-gp) [1]; 300 mM maltose) was 0.9 (0.4) μmol/min/mg, the “Basal Vmax” value (P-glycoprotein (P-gp) [1]; 300 mM maltose) was 0.1 (0.2) μmol/min/mg and the “Effect of the disaccharide on nicardipine stimulated ATPase activity (Vmax)” value (P-glycoprotein (P-gp) [1]) was “no significant affect; also recorded: did not alter; also recorded: does not effect; also recorded: no significant difference”. The “Effect of the disaccharide on basal ATPase activity” value (P-glycoprotein (P-gp) [1]) was “remained unchanged; also recorded: no significant difference” and the “Time for which P-gp ATPase activity is preserved after freeze drying” value (P-glycoprotein (P-gp) [2]) was ≤ 12 days.

In the case of `OC[C@H]1O[C@H](O[C@H]2O[C@H](CO)[C@@H](O)[C@H](O)[C@H]2O)[C@H](O)[C@@H](O)[C@@H]1O` [Trehalose, α-D-glucopyranosyl (1-1) α-D-glucopyranose], the “Effect of the disaccharide on potency of nicardipine to stimulate ATPase activity” value (P-glycoprotein (P-gp) [3]) is listed as “did not affect; also recorded: unaffected; also recorded: no significant difference”, the “Effect on ATPase activity of plasma membrane H+-ATPase” value ([4]; 0.6 M to 0.8M trehalose, 20° C.) is listed as “inhibit” and the “Reduction in Vmax of plasma membrane H+-ATPase” value ([4]; high trehalose concentrations, 40° C.) is listed as “negligible”. The “Nicardipine stimulated Vmax” value (P-glycoprotein (P-gp) [1]; 10 mM trehalose) was 4.7 (1.6) μmol/min/mg, the “Basal Vmax” value (P-glycoprotein (P-gp) [1]; 10 mM trehalose) was 0.86 (0.67) μmol/min/mg and the “Nicardipine stimulated Vmax” value (P-glycoprotein (P-gp) [1]; 30 mM trehalose) was 5.6 (2.3) μmol/min/mg. The “Basal Vmax” value (P-glycoprotein (P-gp) [1]; 30 mM trehalose) was 0.63 (0.4) μmol/min/mg, the “Nicardipine stimulated Vmax” value (P-glycoprotein (P-gp) [1]; 100 mM trehalose) was 4.9 (2.1) μmol/min/mg and the “Basal Vmax” value (P-glycoprotein (P-gp) [1]; 100 mM trehalose) was 1.0 (0.86) μmol/min/mg. For the same molecule, the “Nicardipine stimulated Vmax” value (P-glycoprotein (P-gp) [1]; 300 mM trehalose) was 3.7 (1.3) μmol/min/mg, the “Basal Vmax” value (P-glycoprotein (P-gp) [1]; 300 mM trehalose) was 0.7 (0.54) μmol/min/mg and the “Effect of the disaccharide on nicardipine stimulated ATPase activity (Vmax)” value (P-glycoprotein (P-gp) [1]) was “did not affect; also recorded: does not affect; also recorded: no significant difference”. The “Effect of the disaccharide on basal ATPase activity” value (P-glycoprotein (P-gp) [1]) was “does not affect; also recorded: no significant difference”.
